This is an account of results in patent publication US10231954B2, “Neurodegenerative therapies” (LYTIX BIOPHARMA AS, priority 2014, dated 2019).

Like-named read-outs stand apart in the source and are kept apart here.

Common to all, as to type: biochemical
The test system of one assay is AMPK. The assay can be described thus: Kinase profiling AMPK. From the text:
(§1) Any value less that 25 is considered to be highly significant inhibition.

Another assay addresses MARK2 (Homo sapiens, UniProt Q7KZI7). Briefly: Kinase profiling MARK2. The settings on record: for remaining activity at 100 µM: read-out: residual kinase activity, MARK2.
From the text: as §1

A further assay deals with PAK5 (Homo sapiens, UniProt Q9P286). Briefly: Kinase profiling PAK5. The following applies: for remaining activity at 100 µM: read-out: residual kinase activity, PAK5.
Chain of PAK5 (Q9P286 whole entry): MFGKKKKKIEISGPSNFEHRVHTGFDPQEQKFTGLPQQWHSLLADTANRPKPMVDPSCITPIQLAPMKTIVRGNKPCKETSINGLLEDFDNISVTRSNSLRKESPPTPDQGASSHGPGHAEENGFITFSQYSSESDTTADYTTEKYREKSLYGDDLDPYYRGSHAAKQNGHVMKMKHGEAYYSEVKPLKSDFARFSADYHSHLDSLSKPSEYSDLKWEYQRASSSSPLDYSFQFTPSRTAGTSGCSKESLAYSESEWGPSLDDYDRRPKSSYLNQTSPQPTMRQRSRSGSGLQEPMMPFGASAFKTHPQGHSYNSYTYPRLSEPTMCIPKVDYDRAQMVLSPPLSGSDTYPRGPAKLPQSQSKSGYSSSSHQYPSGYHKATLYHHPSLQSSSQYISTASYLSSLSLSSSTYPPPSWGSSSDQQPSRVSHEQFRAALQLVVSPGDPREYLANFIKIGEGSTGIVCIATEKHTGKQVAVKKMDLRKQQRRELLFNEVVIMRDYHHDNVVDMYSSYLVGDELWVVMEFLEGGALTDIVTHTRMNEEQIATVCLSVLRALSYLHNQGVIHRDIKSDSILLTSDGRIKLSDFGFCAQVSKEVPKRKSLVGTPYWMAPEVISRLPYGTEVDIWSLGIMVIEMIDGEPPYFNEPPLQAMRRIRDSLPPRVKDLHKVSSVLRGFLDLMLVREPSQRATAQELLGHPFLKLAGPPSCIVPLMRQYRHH
From the text: as §1

For the next assay, the target named is MINK1 (Homo sapiens, UniProt Q8N4C8). The assay can be described thus: Kinase profiling MINK1. The following applies: for remaining activity at 100 µM: read-out: residual kinase activity, MINK1.
Chain of MINK1 (Q8N4C8 whole entry, species assumed): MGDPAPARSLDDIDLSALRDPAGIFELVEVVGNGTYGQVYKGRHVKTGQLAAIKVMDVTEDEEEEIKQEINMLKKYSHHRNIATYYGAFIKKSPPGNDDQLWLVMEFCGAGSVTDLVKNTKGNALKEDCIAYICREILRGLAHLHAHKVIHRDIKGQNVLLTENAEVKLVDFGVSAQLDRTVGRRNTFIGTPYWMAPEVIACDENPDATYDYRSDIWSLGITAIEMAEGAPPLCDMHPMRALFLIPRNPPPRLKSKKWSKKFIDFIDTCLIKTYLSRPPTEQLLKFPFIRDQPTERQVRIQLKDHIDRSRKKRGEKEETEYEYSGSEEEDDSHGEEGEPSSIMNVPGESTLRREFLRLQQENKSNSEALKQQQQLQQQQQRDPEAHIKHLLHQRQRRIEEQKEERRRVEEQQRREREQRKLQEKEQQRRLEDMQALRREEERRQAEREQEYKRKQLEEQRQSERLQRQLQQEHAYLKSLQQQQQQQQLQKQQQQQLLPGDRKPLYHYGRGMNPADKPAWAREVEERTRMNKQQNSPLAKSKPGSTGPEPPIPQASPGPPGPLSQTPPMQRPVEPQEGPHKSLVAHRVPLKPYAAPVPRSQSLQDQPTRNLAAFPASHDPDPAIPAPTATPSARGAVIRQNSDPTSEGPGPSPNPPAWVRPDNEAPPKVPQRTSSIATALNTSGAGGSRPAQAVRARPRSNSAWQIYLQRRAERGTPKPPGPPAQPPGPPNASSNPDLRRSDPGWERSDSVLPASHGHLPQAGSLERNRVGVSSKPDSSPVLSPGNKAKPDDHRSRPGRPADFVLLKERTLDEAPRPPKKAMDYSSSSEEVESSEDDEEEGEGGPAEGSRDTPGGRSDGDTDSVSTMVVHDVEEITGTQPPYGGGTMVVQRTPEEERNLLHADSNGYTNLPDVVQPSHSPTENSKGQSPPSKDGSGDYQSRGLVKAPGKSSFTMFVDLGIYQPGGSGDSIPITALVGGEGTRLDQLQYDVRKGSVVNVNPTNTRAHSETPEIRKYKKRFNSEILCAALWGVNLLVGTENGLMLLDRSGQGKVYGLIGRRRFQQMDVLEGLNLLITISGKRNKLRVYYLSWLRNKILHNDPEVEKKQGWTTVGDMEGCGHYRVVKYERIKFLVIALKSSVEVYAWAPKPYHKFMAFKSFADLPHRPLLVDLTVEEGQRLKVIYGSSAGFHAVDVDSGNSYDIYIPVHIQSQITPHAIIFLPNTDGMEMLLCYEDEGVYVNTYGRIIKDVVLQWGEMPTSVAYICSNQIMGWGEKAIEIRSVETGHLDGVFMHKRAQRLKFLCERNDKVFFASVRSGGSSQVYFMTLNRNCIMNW
From the text: as §1

The target in a further assay is MEKK1 (Homo sapiens, UniProt Q13233). Briefly: Kinase profiling MEKK1. The following applies: for remaining activity at 100 µM: read-out: residual kinase activity, MEKK1.
From the text: as §1

A further assay addresses YES1 (Homo sapiens, UniProt P07947). The assay can be described thus: Kinase profiling YES1. The settings on record: for remaining activity at 100 µM: read-out: residual kinase activity, YES1.
From the text: as §1

The next assay addresses T1, EPH-B3 (Homo sapiens, UniProt P54753).
T1 sequence (P54753 34-998): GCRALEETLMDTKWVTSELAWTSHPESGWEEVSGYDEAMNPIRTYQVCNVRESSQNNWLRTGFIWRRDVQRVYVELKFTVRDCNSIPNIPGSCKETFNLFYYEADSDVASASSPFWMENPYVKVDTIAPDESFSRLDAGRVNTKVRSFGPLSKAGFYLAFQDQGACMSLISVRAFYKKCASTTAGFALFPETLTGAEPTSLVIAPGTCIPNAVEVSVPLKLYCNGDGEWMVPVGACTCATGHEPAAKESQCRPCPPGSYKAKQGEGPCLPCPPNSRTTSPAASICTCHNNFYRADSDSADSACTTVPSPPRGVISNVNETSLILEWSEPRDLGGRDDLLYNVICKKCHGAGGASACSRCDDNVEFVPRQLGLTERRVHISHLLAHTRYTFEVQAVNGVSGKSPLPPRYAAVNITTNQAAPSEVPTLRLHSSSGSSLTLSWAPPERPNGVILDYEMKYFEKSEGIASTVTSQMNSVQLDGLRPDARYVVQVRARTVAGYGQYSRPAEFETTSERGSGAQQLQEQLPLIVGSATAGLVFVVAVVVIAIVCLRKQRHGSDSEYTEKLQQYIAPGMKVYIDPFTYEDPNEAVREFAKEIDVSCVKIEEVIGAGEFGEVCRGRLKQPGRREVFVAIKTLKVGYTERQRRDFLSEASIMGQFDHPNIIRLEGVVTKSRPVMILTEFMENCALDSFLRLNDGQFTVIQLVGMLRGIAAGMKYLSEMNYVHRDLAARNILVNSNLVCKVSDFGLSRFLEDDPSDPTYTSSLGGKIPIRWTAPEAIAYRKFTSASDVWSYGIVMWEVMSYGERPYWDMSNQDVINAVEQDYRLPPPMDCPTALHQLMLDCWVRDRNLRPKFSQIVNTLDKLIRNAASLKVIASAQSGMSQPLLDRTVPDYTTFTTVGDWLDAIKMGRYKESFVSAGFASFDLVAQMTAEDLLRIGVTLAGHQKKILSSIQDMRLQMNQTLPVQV
Briefly: Kinase profiling EPH-B3. The settings on record: for remaining activity at 100 µM: read-out: residual kinase activity, EPH-B3.
From the text: as §1

The next assay addresses IRR (Homo sapiens, UniProt P14616). The assay can be described thus: Kinase profiling IRR. The following applies: for remaining activity at 100 µM: read-out: residual kinase activity, IRR.
From the text: as §1

Another assay addresses T2, ULK2 (Homo sapiens, UniProt Q8IYT8).
T2 sequence (Q8IYT8 1-1036): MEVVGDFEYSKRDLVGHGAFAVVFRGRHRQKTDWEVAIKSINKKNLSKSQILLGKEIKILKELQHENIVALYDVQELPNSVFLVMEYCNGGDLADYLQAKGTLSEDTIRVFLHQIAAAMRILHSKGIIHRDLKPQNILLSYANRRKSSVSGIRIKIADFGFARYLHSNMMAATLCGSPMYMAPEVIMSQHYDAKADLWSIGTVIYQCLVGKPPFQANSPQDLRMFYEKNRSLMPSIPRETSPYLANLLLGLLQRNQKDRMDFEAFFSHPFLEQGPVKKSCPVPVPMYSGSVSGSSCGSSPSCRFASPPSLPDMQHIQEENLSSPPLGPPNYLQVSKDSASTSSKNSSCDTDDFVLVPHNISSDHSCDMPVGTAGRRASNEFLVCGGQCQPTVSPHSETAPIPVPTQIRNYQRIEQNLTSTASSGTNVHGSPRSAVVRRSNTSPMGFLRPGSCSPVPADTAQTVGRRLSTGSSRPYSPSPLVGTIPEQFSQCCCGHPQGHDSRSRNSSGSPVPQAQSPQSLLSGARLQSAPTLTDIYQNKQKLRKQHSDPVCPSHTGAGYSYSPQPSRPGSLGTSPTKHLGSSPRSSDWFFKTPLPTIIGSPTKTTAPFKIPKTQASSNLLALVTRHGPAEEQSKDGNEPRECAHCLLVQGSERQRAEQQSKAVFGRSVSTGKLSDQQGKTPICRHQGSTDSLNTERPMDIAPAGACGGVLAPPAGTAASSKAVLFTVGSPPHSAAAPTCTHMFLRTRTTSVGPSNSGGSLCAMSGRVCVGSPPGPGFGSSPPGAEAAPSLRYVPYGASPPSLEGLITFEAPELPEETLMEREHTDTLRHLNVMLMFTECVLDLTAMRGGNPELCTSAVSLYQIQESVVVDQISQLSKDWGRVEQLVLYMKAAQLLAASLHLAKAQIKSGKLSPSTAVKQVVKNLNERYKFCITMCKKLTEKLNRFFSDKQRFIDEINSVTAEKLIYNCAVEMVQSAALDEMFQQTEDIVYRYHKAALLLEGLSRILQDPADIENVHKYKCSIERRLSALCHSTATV
The assay can be described thus: Kinase profiling ULK2. The settings on record: for remaining activity at 100 µM: read-out: residual kinase activity, ULK2.
From the text: as §1

Another assay has as its target ERK5 (Homo sapiens, UniProt Q13164). The assay can be described thus: Kinase profiling ERK5. The following applies: for residual kinase activity, ERK5: 100 micromolar inhibitor concentration, 100 is no change.
From the text: as §1

For a further assay, the target named is T3, TGFBR1 (Homo sapiens, UniProt P36897).
T3 sequence (P36897 34-503): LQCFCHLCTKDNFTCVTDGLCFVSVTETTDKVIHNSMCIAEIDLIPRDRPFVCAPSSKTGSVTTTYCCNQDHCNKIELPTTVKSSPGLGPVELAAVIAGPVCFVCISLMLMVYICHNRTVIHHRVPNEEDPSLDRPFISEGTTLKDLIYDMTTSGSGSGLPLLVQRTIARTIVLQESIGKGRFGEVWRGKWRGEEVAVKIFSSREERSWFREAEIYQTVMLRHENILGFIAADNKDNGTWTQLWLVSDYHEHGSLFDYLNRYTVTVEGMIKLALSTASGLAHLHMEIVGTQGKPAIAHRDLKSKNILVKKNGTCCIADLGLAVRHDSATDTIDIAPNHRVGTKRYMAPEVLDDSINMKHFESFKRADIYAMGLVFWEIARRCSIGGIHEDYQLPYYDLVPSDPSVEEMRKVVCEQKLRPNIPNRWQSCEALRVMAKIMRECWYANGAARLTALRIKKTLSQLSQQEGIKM
Briefly: Kinase profiling TGFBR1.
From the text: as §1

Where [1] appears, read: 100 micromolar inhibitor concentration, 100 is no change.
Setting [2] is: 100 micromolar inhibitor, 100 = no change.

Chain of MARK2 (Q7KZI7 whole entry, species assumed): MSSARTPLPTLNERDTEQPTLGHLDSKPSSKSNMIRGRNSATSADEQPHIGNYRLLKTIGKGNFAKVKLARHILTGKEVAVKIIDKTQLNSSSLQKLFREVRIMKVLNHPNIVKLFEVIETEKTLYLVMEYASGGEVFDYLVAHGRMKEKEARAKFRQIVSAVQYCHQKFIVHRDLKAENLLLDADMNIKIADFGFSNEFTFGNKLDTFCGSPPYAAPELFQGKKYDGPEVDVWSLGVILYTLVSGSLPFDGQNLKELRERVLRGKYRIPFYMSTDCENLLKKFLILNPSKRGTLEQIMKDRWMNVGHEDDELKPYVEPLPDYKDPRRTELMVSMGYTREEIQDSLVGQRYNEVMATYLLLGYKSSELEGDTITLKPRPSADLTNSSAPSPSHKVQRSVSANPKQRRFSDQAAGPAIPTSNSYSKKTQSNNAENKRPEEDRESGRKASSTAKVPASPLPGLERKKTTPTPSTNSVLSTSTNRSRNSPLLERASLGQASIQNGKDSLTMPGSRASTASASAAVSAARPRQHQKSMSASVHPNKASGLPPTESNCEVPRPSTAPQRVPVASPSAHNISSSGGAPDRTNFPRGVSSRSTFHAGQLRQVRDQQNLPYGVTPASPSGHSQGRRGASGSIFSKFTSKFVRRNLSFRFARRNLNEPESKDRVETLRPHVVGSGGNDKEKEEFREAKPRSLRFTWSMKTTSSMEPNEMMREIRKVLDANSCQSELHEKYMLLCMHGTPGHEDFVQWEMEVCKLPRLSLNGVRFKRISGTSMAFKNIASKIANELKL
Chain of YES1 (P07947 whole entry, species assumed): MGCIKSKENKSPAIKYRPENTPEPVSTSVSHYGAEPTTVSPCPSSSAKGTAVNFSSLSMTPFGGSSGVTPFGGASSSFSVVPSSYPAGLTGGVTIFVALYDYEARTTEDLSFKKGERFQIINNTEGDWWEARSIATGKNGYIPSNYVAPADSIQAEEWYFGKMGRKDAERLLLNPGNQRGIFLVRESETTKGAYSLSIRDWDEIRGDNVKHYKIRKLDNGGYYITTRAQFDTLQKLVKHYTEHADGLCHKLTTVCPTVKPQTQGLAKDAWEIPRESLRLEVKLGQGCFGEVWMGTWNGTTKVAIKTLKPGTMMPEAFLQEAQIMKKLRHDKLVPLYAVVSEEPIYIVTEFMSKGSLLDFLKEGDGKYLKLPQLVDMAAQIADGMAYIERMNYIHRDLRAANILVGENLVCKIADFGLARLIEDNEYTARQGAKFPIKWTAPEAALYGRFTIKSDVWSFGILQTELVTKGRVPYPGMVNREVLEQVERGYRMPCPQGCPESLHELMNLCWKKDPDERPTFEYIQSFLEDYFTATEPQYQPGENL
Chain of IRR (P14616 27-1297, species assumed): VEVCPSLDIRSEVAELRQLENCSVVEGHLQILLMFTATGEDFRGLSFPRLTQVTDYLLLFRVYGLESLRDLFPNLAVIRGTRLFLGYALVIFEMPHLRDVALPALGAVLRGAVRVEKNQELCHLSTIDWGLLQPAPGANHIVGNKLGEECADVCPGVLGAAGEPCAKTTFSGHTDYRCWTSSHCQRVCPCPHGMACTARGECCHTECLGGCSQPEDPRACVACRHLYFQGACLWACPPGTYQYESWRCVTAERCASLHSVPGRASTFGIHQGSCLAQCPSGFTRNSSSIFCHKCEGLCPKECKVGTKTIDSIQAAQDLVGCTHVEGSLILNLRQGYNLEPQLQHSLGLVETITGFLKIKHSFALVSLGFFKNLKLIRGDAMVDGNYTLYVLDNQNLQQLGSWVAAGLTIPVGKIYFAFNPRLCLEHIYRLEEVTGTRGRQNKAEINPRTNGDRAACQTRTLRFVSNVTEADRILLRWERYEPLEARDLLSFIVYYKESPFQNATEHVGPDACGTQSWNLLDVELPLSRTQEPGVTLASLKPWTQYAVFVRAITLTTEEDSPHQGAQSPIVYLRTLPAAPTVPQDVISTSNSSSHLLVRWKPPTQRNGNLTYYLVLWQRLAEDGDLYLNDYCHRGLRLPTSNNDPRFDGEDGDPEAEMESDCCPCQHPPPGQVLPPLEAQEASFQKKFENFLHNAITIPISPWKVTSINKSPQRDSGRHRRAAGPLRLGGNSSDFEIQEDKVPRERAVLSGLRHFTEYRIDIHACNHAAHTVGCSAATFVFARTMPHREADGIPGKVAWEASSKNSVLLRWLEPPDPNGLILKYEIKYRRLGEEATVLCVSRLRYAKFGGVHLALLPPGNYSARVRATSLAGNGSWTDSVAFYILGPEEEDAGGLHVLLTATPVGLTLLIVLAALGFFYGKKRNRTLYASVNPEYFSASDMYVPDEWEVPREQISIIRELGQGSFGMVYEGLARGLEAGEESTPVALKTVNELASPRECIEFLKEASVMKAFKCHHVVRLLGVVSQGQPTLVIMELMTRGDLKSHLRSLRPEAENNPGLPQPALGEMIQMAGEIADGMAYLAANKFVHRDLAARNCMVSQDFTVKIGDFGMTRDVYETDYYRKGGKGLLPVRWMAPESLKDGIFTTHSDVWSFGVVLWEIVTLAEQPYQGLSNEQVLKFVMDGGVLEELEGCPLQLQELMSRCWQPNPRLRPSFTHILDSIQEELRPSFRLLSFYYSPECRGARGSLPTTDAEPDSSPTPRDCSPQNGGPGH

Take `CC(=O)Nc1nc2cc(O)ccc2s1` [Compound 01-66, N-(5-hydroxybenzo[d]thiazol-2-yl)acetamide]: the “residual kinase activity, AMPK” value with AMPK (setting [1]) was found to be 61. Moreover, the remaining activity at 100 µM at MARK2 amounted to 63%; at PAK5 it was 72%; on MINK1, 48%; at MEKK1 it was 94%; on YES1, 72%; on EPH-B3, 83%. The remaining activity at 100 µM on IRR is 30%.

For `CC(=O)Nc1nc2ccc(O)cc2s1` [Compound 01-71], in the assay on AMPK (setting [1]), the “residual kinase activity, AMPK” value is recorded as 37. For the same compound, the remaining activity at 100 µM at MARK2 (setting [1]) stood at 54%; at PAK5 (setting [1]) it was 85%; on MINK1 (setting [1]), 28%; on MEKK1 (setting [1]) it was 96%; on YES1 (setting [1]), 59%; at EPH-B3 (setting [1]), 66%. Also, the remaining activity at 100 µM on IRR (setting [1]) stood at 34%.

On to `CC(=O)Nc1nc2ccc(C(F)(F)F)cc2s1` [Compound 01-90], for which, in the assay on AMPK (setting [1]), the “residual kinase activity, AMPK” value is 90. In addition, the remaining activity at 100 µM came to 74% at MARK2 (setting [1]); 82% on PAK5 (setting [1]); 35% on MINK1 (setting [1]); 90% at MEKK1 (setting [1]); 78% at ULK2 (setting [1]); 57% at YES1 (setting [1]). The remaining activity at 100 µM was 89% on EPH-B3 (setting [1]) and 49% on IRR (setting [1]).

`CC(=O)Nc1nc2ccc(C#N)cc2s1` [Compound 01-94]: the “residual kinase activity, AMPK” value in the assay with AMPK (setting [1]) was found to be 73. Besides, the remaining activity at 100 µM at MARK2 (setting [1]) turned out to be 53%; at PAK5 (setting [1]), 70%; at MINK1 (setting [1]), 40%; at MEKK1 (setting [1]), 94%; on ULK2 (setting [1]), 68%; on YES1 (setting [1]), 86%. The results for the remaining activity at 100 µM on EPH-B3 (setting [1]) and at IRR (setting [1]) were 72% and 42%, respectively.

Take `CC(=O)Nc1cccc(NC(=O)c2nc3ccc(O)cc3s2)c1` [Compound 03-07, N-(3-acetamidophenyl)-6-hydroxybenzo[d]thiazole-2-carboxamide]: the remaining activity at 100 µM at ERK5 (100 micromolar inhibitor, 100 = no change, read-out: residual kinase activity, ERK5) worked out at 48%; at MARK2 (setting [2]), 73%; on PAK5 (setting [2]), 82%; on MINK1 (setting [2]), 18%; at MEKK1 (setting [2]) it was 115%; on ULK2 (setting [2]), 81%. The remaining activity at 100 µM is 113% on TGFBR1 (100 micromolar inhibitor, 100 = no change, read-out: residual kinase activity, TGFBR1); 49% on YES1 (setting [2]); 64% at EPH-B3 (setting [2]); 75% at IRR (setting [2]). Further, the “residual kinase activity, AMPK” value in the assay with AMPK (setting [2]) turned out to be 76.

As for `O=C(Nc1nc2cc(O)ccc2s1)c1ccncc1` [Compound 03-11], the “residual kinase activity, ERK5” value on ERK5 came to 58. The “residual kinase activity, AMPK” value with AMPK (setting [1]) was 84. For the same compound, the “residual kinase activity, MARK2” value at MARK2 (setting [1]) was found to be 79. Besides, the “residual kinase activity, PAK5” value on PAK5 (setting [1]) was found to be 92. In addition, on MINK1 (setting [1]), the “residual kinase activity, MINK1” value was 63. Further, at MEKK1 (setting [1]), the “residual kinase activity, MEKK1” value is recorded as 106. In addition, the “residual kinase activity, ULK2” value at ULK2 (setting [1]) stood at 86. The “residual kinase activity, TGFBR1” value at TGFBR1 (setting [1]) was 107. Further, the “residual kinase activity, YES1” value at YES1 (setting [1]) worked out at 82. In addition, on EPH-B3 (setting [1]), the “residual kinase activity, EPH-B3” value was found to be 76. Moreover, on IRR (setting [1]), the “residual kinase activity, IRR” value worked out at 86.

For `CC(=O)Nc1cccc(C(=O)Nc2nc3ccc(O)cc3s2)c1` [Compound 03-58], the “residual kinase activity, ERK5” value on ERK5 is reported as 31.

With `CC(=O)NC(C)C(=O)Nc1nc2ccc(C(F)(F)F)cc2s1` (stereo not drawn) [Compound 03-80], the “residual kinase activity, ERK5” value on ERK5 is 27.

Take `CC(=O)Nc1ccccc1C(=O)Nc1nc2ccc(O)cc2s1` [Compound 08-39]: at ERK5, the “residual kinase activity, ERK5” value worked out at 47.

On to `COc1ccc2sc(NC(=O)c3ccc(NC(C)=O)cc3)nc2c1` [MS:LY-2-77], for which the “residual kinase activity, ERK5” value at ERK5 amounted to 74.

`COc1ccc2sc(NC(=O)c3cccc(NC(C)=O)c3)nc2c1` [MS:LY-2-85]: on ERK5, the “residual kinase activity, ERK5” value turned out to be 45.

Take `CC(=O)Nc1ccc(C(=O)Nc2nc3cc(O)ccc3s2)cc1` [MS:LY-2-87]: the “residual kinase activity, ERK5” value on ERK5 came to 54.

In the case of `CC(=O)Nc1cccc(C(=O)Nc2nc3cc(O)ccc3s2)c1` [MS:LY-2-89], the “residual kinase activity, ERK5” value on ERK5 is 32.
